Patent US20240252694A1, “CONJUGATES COMPRISING COVALENT BINDERS FOR TARGETING INTRACELLULAR KRAS G12C PROTEINS” (RayzeBio, Inc., priority 2021, published 2024)

What was measured:
[1] = biological target: T1, KRAS (G12C) (Homo sapiens, UniProt P01116, G12C); experiment: KRAS G12C Nucleotide Exchange Assay (fixed GTP concentration); format: biochemical; conditions: KRAS (G12C) labeled with BODIPY-GDP; fixed GTP concentration; 2 hours compound incubation; fluorescence readout; read-out: IC50
T1 construct: purchased BPS Bioscience 79859
T1 sequence (P01116 1-188 isoform P01116-2 G12C): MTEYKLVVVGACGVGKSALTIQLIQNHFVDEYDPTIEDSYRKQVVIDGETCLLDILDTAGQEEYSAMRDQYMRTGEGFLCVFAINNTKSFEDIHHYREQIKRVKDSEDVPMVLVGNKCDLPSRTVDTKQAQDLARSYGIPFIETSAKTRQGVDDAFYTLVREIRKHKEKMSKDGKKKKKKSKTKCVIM
Protocol: A KRAS (G12C) Nucleotide Exchange Assay kit was used to evaluate compound antagonistic binding. The assay kit (BPS Bioscience. Catalog #79859) utilizes KRAS (G12C) labeled with BODIPY-GDP to determine if compounds can affect the nucleotide exchange (GDP to GTP) in KRAS signaling, Compounds were typically characterized using both protocols: fixed GTP concentrations and fixed inhibitor concentrations.
All reagents were prepared following manufacturer's protocol. 5 μL BODIPY-GDP and 10 μL of KRAS buffer were added to each well. A 3-fold serial dilution of compound in 5% DMSO was prepared. Typically, compounds were tested in the range of 0 μM to 50 μM, but the range could be modified depending on the characterization needs. 5 μL of diluted compound was added to the wells and the plate was centrifuged briefly to ensure all components were mixed before incubation at ambient temperature. After incubation for 2 hours, 10 μM GTP and 25 mM EDTA were mixed at a 1:1 ratio and 5 μL was added to the wells. The plate was then incubated for 1 hour at ambient temperature. After incubation, fluorescence was measured at […].
Data was analyzed by plotting fluorescence vs GTP concentration for control wells and compound wells.

[2] = tested on: human ERK1 dually phosphorylated at T202/Y204 and ERK2; experiment: Phosphorylated ERK1/ERK2 ELISA; format: cell-based; conditions: phosphorylated ERK in cell lysates after treatment with compounds; sandwich ELISA; cell line not stated
Protocol: An ERK phosphorylation ELISA kit was used to characterize compounds for KRAS-based cell activity. The sandwich ELISA (RnD Systems. Catalog #DYC1018B) measures human ERK1 that is dually phosphorylated at T202/Y204 and ERK2. Cell lysates from cells before and after treatment with compounds were prepared using kit manufacturer protocols.
All reagents were prepared following the kit's protocol. The wells of a 96-well microtiter plate were coated with 100 μL of 8.0 μg/mL of capture antibody in PBS. The plate was sealed and left to incubate overnight at ambient temperature. After incubation, the wells were washed with 400 μL of Wash Buffer for a total of 3 washes. Wells were then blocked by adding 300 μL of Block Buffer to each well and incubated at ambient temperature for 1-2 hours. After removal of the Block Buffer by aspirating and washing, 100 μL of standards and samples were added to the plate in duplicates and incubated for 2 hours at ambient temperature. The aspiration and wash steps were repeated to remove unbound standard and samples and 100 μL of 400 ng/mL detection antibody was applied to each well. After 2 hours at ambient temperature, detection antibody was removed by washing and 100 μL of Streptavidin-HRP was added to each well. Incubation of Streptavidin-HRP was at ambient temperature for 20 minutes, after which Streptavidin-HRP was removed by washing, 100 μL of Substrate Solution was added to each well and incubated for 20 minutes before 50 μL of Stop Solution was added to each well.
The optical density of each well was immediately analyzed at 450 nm with a wavelength correction at 540 nm. The standards were plotted by averaging the optical density for each replicate and fitted with a four-parameter logistic curve fit. Concentrations of phosphorylated ERK in cell lysate samples were determined by extrapolation from the standard curve and then adjusted for any dilution factors.

## C=CC(=O)N1CCN(c2nc(OC[C@@H]3CCCN3CCNC(=O)CN3CCN4CCN5CCN(CC3)CC(=O)[O][Lu]([O]C(=O)C4)[O]C(=O)C5)nc3c2CCN(c2cccc4cccc(Cl)c24)C3)C[C@@H]1CC#N [Lu-CHL-002, N-[2-[(2S)-2-[[7-(8-chloro-1-naphthyl)-4-[(3S)-3-(cyanomethyl)-4-prop-2-enoyl-piperazin-1-yl]-6,8-dihydro-5H-pyrido[3,4-d]pyrimidin-2-yl]oxymethyl]pyrrolidin-1-yl]ethyl]-2-(3,16,19-trioxo-2,17,18-trioxa-5.8,11,14-tetraza-1λ3-lutetatricyclo[9.6.3,25,14]docosan-8-yl)acetamide]
[1]
  IC50: 1 to 10 µM
[2]
  IC50: 1 to 10 µM
